The test system of one assay is CurM ST and TE. Put plainly: Coupled ST-TE one-pot reaction (HPLC, LC-MS). In kind it is biochemical, Lyngbya majuscula. The note with it: from model substrate (3R)-1-ACP. The procedure:
With the order of the ST and TE reactions established for the acyl-ACP intermediate, the next investigation was to couple the two reactions in one pot. […] Under the same reaction conditions, it was discovered that the CurM TE catalyzed hydrolysis reaction with sulfonated product (3R)-2-ACP was about 800-fold faster than with (3R)-1-ACP. Moreover, TE catalyzed hydrolysis of (3R)-2-ACP was about 120-fold faster than (3S)-2-ACP (FIG. 7).
Next, experiments were performed to assess whether the proposed sulfonated intermediate (3R)-2 (FIG. 3A) is released following hydrolysis of (3R)-2-ACP, or whether formation of 3 (FIG. 3B) occurs directly by a coordinated decarboxylative elimination process. First, the ST-TE coupled reactions with (3R)-1-ACP were analyzed by LC-MS and a single product was confirmed to be (3R)-2 by co-injection with the corresponding authentic standard (FIG. 3A iii). Due to the expected volatility of 3, the contents of the coupled reaction were extracted with hexane and analyzed by GC-MS. A second product was thus detected and confirmed to be 3 by co-injection with the corresponding authentic standard (FIG. 3B iv). […]
The ST and TE assays were performed using R)-1-ACP and (3S)-1-ACP substrates. […] All the reactions were incubated at room temperature, quenched by addition of 10% formic acid, and analyzed by reverse-phase HPLC using Jupiter C4 column. […]

In the next assay the test system is CurM TE. As to the kind of experiment: TE-catalyzed decarboxylative elimination to 3 (GC-MS). The assay is classed as biochemical, Lyngbya majuscula. The note with it: in 1 hour; free authentic (synthetic) substrate. The method, then:
Next, experiments were performed to assess whether the proposed sulfonated intermediate (3R)-2 (FIG. 3A) is released following hydrolysis of (3R)-2-ACP, or whether formation of 3 (FIG. 3B) occurs directly by a coordinated decarboxylative elimination process. […] Due to the expected volatility of 3, the contents of the coupled reaction were extracted with hexane and analyzed by GC-MS. A second product was thus detected and confirmed to be 3 by co-injection with the corresponding authentic standard (FIG. 3B iv). […]
The ST and TE assays were performed using R)-1-ACP and (3S)-1-ACP substrates. […] All the reactions were incubated at room temperature, quenched by addition of 10% formic acid, and analyzed by reverse-phase HPLC using Jupiter C4 column. The ACP fractions were collected, lyophilized and analyzed by FTICR-MS and IRMPD. […]
The samples and authentic standard were analyzed by a 6890N gas chromatograph equipped with a 5973 mass selective quadrupole detector (Agilent). […] Total ion chromatograms were recorded using a mass range of 60-420 amu, and the selective ion chromatograms were recorded by monitoring the two to three most abundant masses plus the parent masses of target compounds.

Consider `CCCCCCCCCC(C[C@H](CC(=O)O)OS(=O)(=O)O)OC` (mixture of isomers) [(3R)-2, (3R,5RS)-3-Sulfonatooxy-5-methoxytetradecanoic acid], for which, in the assay on CurM ST and TE, the “Level of (3R)-2 as a product of the TE reaction” value was “greater than 50%”. Also, the “Conversion to 3 by TE” value with CurM TE was “about 2 % conversion”.
